{
  "source": "patent US8846570B2",
  "about": "“Herbicidal compositions comprising 4-amino-3-chloro-5-fluoro-6-(4-chloro-2-fluoro-3-methoxyphenyl)pyridine-2-carboxylic acid or a derivative thereof and microtubule inhibiting herbicides” (Dow AgroSciences LLC, priority 2012, dated 2014)",
  "test_in_all_cases": "Postemergence foliar-applied, direct seeded rice, greenhouse: visual weed control",
  "type_in_all_cases": "in vivo",
  "key": {"[1]": {"tested_on": "Cyperus difformis L. (CYPDI)", "conditions": "20 DAA; 5.3 g ae/ha", "description": "(§1) Seeds or nutlets of the desired test plant species were planted in a soil matrix prepared by mixing a loam or sandy loam soil (e.g., 28.6 percent silt, 18.8 percent clay, and 52.6 percent sand, with a pH of about 5.8 and an organic matter content of about 1.8 percent) and calcareous grit in an 80 to 20 ratio. The soil matrix was contained in plastic pots with a volume of 1 quart and a surface area of 83.6 cm^2. […] The plants were grown for 8-22 days in a greenhouse with an approximate 14 h photoperiod which was maintained at about 29° C. during the day and 26° C. during the night. Nutrients (Peters Excel® 15-5-15 5-Ca 2-Mg and iron chelate) were applied in the irrigation solution as needed and water was added on a regular basis. Supplemental lighting was provided with overhead metal halide 1000-Watt lamps as necessary. The plants were employed for testing when they reached the first through fourth true leaf stage.\n(§2) Forms of compound A were applied on an acid equivalent basis.\n(§3) For treatments comprised of formulated compounds, measured amounts of compounds were placed individually in 25 mL glass vials and diluted in a volume of 1.25% (v/v) Agri-Dex® crop oil concentrated to obtain 12× stock solutions. […] Application solutions were prepared by adding an appropriate amount of each stock solution (e.g., 1 mL) and diluted to the appropriate final concentrations with the addition of 10 mL of an aqueous mixture of 1.25% (v/v) crop oil concentrate so that the final spray solutions contained 1.25+/−0.05% (v/v) crop oil concentrate.\n(§4) As required, additional water and/or 97:3 v/v acetone/DMSO was added to individual application solutions so that the final acetone and DMSO concentrations of the application solutions being compared were 8.1% and 0.25%, respectively.\n(§5) All stock solutions and applications solutions were visually inspected for compound compatibility prior to application. Spray solutions were applied to the plant material with an overhead Mandel track sprayer equipped with a 8002E nozzles calibrated to deliver 187 L/ha over an application area of 0.503 m^2 at a spray height of 18 to 20 inches (46 to 50 cm) above average plant canopy height. Control plants were sprayed in the same manner with the solvent blank.\n(§6) The treated plants and control plants were placed in a greenhouse as described above and watered by sub-irrigation to prevent wash-off of the test compounds. After approximately 3 weeks, the condition of the test plants as compared with that of the untreated plants was determined visually and scored on a scale of 0 to 100 percent where 0 corresponds to no injury or growth inhibition and 100 corresponds to complete kill.\n(§7) Colby's equation was used to determine the herbicidal effects expected from the mixtures (Colby, S. R. 1967. Calculation of the synergistic and antagonistic response of herbicide combinations. Weeds 15:20-22.).\n(§8) The following equation was used to calculate the expected activity of mixtures containing two active ingredients, A and B: Expected=A+B−(A×B/100)"}, "[2]": {"tested_on": "Cyperus esculentus L. (CYPES)", "conditions": "20 DAA", "description": "as §1, §2, §3, §4, §5, §6, §7, §8"}, "[3]": {"tested_on": "Schoenoplectus juncoides (Roxb.) Palla (SCPJU)", "conditions": "20 DAA; 5.3 g ae/ha", "description": "as §1, §2, §3, §4, §5, §6, §7, §8"}},
  "data": [
    {"compound": "COc1c(Cl)ccc(-c2nc(C(=O)O)c(Cl)c(N)c2F)c1F", "note": "[Compound A Acid, 4-amino-3-chloro-6-(4-chloro-2-fluoro-3-methoxyphenyl)-5-fluoropyridine-2-carboxylic acid]", "values": [
      {"measurement": "Visual Weed Control (%) Obs", "setting": "[1]", "result": 80, "unit": "%"},
      {"measurement": "Visual Weed Control (%) Obs", "setting": "[2]; 5.3 g ae/ha", "result": 0, "unit": "%"},
      {"measurement": "Visual Weed Control (%) Obs", "setting": "[2]; 10.6 g ae/ha", "result": 90, "unit": "%"},
      {"measurement": "Visual Weed Control (%) Obs", "setting": "[3]", "result": 25, "unit": "%"}
    ]}
  ]
}
